The source of these data is paper PMC7170385, “The selenium-containing drug ebselen potently disrupts LEDGF/p75-HIV-1 integrase interaction by targeting LEDGF/p75” (Journal of Enzyme Inhibition and Medicinal Chemistry, 2020).

The term IC50 denotes the point on the concentration scale where inhibition reaches its midpoint. Broadly, the Ki is a dissociation constant, usually derived from enzyme kinetics or from competition with a known ligand. As a reminder, the Kd is the equilibrium constant for the complex coming apart. High values mean weaker binding, low ones tighter binding.

The target of series [1] is T1, LEDGF/p75 IBD-HIV-1 IN interaction (Homo sapiens, UniProt O75475).
T1 sequence (O75475 347-429 limits assumed): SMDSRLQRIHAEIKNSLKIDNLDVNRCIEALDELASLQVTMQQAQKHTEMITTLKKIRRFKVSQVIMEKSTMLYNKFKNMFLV
Kind of series: HTRF-based LEDGF/p75 IBD-IN interaction assay. On the technique in general: In TR-FRET formats the signal depends on donor and acceptor labels being close together.

In a further series the test system is LEDGF/p75-IN interaction. More on the design: method as in PMID 21222490. The conditions noted are these: cited from earlier work.
Series [2] deals with Escherichia coli thioredoxin reductase. More on the design: method as in Lu et al.[48]. The conditions noted are these: cell marked (Ki); ref Lu et al.[48]; cited from earlier work.
Series [3] has as its target Trypanosoma brucei hexokinase 1. Further details: method as in Gordhan et al.[47]. The conditions noted are these: ref Gordhan et al.[47]; cited from earlier work.
For another series, the target named is LEDGF/p75 (Homo sapiens, UniProt O75475). Kind of series: Biolayer interferometry (BLI) binding assay. On the procedure: A protein binding assay was performed by biolayer interferometry (BLI) as described previously. First, purified recombinant LEDGF/p75 protein was biotinylated using the Thermo EZLink long-chain biotinylation reagent. Then, biolayer interferometry (BLI) assay was performed using an OctetRED96 instrument from PALL/ForteBio. All assays were run at 30 °C with continuous 1000 rpm shaking. PBS with 0.01% Tween-20 was used as the assay buffer. Briefly, biotinylated LEDGF/p75 protein was tethered on Super Streptavidin (SSA) biosensors (ForteBio) by dipping sensors into 200 µl per well 50 µg/ml protein solutions. The measurement processes were all under computer control. Programme procedures were established as follows: For the initial step, biosensors were washed in assay buffer for 300 s to form a baseline; the biosensors labelled with biotin-LEDGF/p75 were exposed to 100 µM compounds for association, and were monitored for 600 s; and then, the biosensors were moved back into assay buffer to disassociate for another 1800s. Data were fit globally and generated automatically by Octet User software (version 9.0.0.10; Fortebio).
Chain of LEDGF/p75 (O75475 whole entry): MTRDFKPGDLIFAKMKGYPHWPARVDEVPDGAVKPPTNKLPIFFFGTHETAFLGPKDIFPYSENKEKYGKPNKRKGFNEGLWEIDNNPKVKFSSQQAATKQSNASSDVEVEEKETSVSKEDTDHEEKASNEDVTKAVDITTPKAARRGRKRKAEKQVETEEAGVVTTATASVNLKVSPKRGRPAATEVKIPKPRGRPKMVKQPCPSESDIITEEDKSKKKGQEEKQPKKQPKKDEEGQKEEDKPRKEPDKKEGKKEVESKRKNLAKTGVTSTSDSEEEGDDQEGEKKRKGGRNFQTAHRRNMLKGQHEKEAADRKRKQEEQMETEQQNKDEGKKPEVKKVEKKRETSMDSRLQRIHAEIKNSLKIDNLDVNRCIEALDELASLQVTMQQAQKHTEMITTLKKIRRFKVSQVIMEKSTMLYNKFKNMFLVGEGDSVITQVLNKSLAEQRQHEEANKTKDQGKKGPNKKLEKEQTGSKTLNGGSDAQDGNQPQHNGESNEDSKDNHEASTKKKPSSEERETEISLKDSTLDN
Background: In BLI a coated tip is dipped into the sample, and binding shifts an interference pattern.

For series [4], the target named is New Delhi metallo-β-lactamase. Further details: method as in Chiou et al.[51]. The conditions noted are these: ref Chiou et al.[51]; cited from earlier work.
The test system of series [5] is Tumor marker endothelial 8 and protective antigen interaction. The conditions noted are these: cited from earlier work.
Series [6] deals with Cryptosporidium parvum glucose-6-phosphate isomerase. More on the design: method as in Eltahan et al.[46]. The conditions noted are these: ref Eltahan et al.[46]; cited from earlier work.
Series [7] has as its system C-terminal domain of HIV-1 capsid. Further details: method as in Thenin-Houssier et al.[39]. The conditions noted are these: ref Thenin-Houssier et al.[39]; cited from earlier work.
The next series deals with HIV-1. More on the design: method as in PMID 26810656. The conditions noted are these: previous study; read-out: 50% effective concentration (EC50), replication of HIV-1; cited from earlier work.
Series [8] has as its system Clostridium difficile cysteine protease domain. Further details: method as in Bender et al.[50]. The conditions noted are these: ref Bender et al.[50]; cited from earlier work.
For series [9], the system named is Pseudomonas aeruginosa Diguanylate Cyclases. Further details: method as in Lieberman et al.[55]. The conditions noted are these: ref Lieberman et al.[55]; cited from earlier work.
Details of series [10]: method as in PMID 26810656. The conditions noted are these: previous study; read-out: half-maximal cytotoxic concentration (CC50); cited from earlier work.
The target of series [11] is Cryptosporidium parvum Inosine 5′-monophosphate dehydrogenase. Further details: method as in Sarwono et al.[54]. The conditions noted are these: ref Sarwono et al.[54]; cited from earlier work.
Series [12] has as its system Mycobacterium tuberculosis antigen 85. More on the design: method as in Favrot et al.[52]. The conditions noted are these: ref Favrot et al.[52]; cited from earlier work.
For series [13], the target named is Bacillus anthracis thioredoxin reductase. The conditions noted are these: ref Gustafsson et al.[49]; cited from earlier work.
Series [14] relates to Hepatitis C Virus NS3 Helicase-Nucleic Acid interaction. More on the design: method as in Mukherjee et al.[53]. The conditions noted are these: ref Mukherjee et al.[53], cited from earlier work.

Read-outs that look alike come from different tables or passages of the source.

The compound `CCN(CC)C(=S)SSC(=S)N(CC)CC` [Disulfiram] showed an IC50 in series [1] of 23200 nM.
Consider `O[C@@H](CS)[C@@H](O)CS` (racemic) [DTT, dithiothreitol], for which the “Inhibitory effect of DTT on LEDGF/p75-IN interaction” value in the series with LEDGF/p75-IN interaction (at 50 µM) is reported as “negligible”. Also, the IC50 in the series on LEDGF/p75-IN interaction is 4500 µM.
Turning to `O=c1c2ccccc2[se]n1-c1ccccc1` [Compound 1, 2-phenyl-1,2-benzisoselenazol-3-one], in series [2], the Ki is 0.52 µM. The IC50 in series [3] was 0.05 µM; in [1] it was 7700 nM; in series [4] it was 0.38 µM; in [5], 1.7 µM; in [6] it was 8.33 µM; in series [7], 0.047 µM. The IC50 was 0.0069 µM in [8]; 5 µM in [9]; 0.71 µM in series [11]; 0.063 µM in series [12]; 1 µM in [13]; 1.1 µM in series [14] (first value of cell 1.1/0.9, difference not explained, read-out: IC50 (first of two values printed)). In addition, in [14] (second value of cell 1.1/0.9, difference not explained, read-out: IC50 (second of two values printed)), the IC50 was 0.9 µM. Moreover, the “HTRF signal when IBD was pre-incubated with compound” value in [1] (IBD pre-incubated with ebselen) is recorded as “dramatical decrease”. In series [1] (IN pre-incubated with ebselen), the “HTRF signal when IN was pre-incubated with compound” value is on record as “no obvious signal change”. For the same compound, in series [1] (in the presence of 50 µM dithiothreitol (DTT)), the “Inhibitory effect on LEDGF/p75 IBD-IN interaction in the presence of DTT” value is recorded as “completely abolished”. The “Time-dependent inhibition (change of affinity over time)” value in series [1] (over 1 h) is listed as “increase in its affinity”. The Kd at LEDGF/p75 (BLI Octet Red, biotinylated LEDGF/p75, 30 °C) came out at 0.0133 µM. At LEDGF/p75 (BLI, dissociation in assay buffer 1800 s), the “Dissociation from LEDGF/p75” value is given as “do not show obvious dissociation”. The EC50 in the series with HIV-1 was 1.99 µM. The CC50 in [10] is 25.4 µM.
The compound `CCN1C(=O)C=CC1=O` [N-Ethylmaleimide] displayed an IC50 in series [1] of 566000 nM.
In [1] (HTRF, 12-point dose-response 0.024 to 50 µM, His6-HIV-1 IN 50 nM, GST-IBD), `NC(=O)CI` [Iodoacetamide] showed an IC50 of over 1e+07 nM.
In [1], `COc1cc(/C=C/C(=O)CC(=O)/C=C/c2ccc(O)c(OC)c2)ccc1O` [Compound 2, Curcumin] showed an IC50 of 14500 nM.
Still for that read-out and setting: as for `O=S(=O)(c1c(O)c(Cl)cc(Cl)c1Cl)c1c(O)c(Cl)cc(Cl)c1Cl` [Compound 3, p38 MAP kinase inhibitor IV], the figure is 117000 nM.
